According to patent publication US10793601B2, “Therapeutic spalt-like transcription factor 4 (SALL4) peptide” (National University of Singapore, priority 2016, dated 2020):
Several values for one entry are separate records, joined by “and”; a condition that tells them apart may be missing. Equal values may be shown once. One block for each molecule: values may come before it. Ends that are not written are not given here.

Experiments:
RBBp4 = target: T1, RBBp4 (Homo sapiens, UniProt Q09028); experiment: Fluorescence polarization (FP) competition with FITC-labelled SALL4 WT peptide; type: binding; settings: for IC50: displacement of FITC-SALL4 WT peptide from RBBp4
T1 construct: purchased SinoBiological
Method: (§1) FIGS. 3A-3E. Key residues involved in SALL4 (1-12)-RBBp4 binding. […] The difference in the binding free energy (ΔΔGbind) of the alanine mutants (ΔGmutant, Ala7 was mutated to glycine) and wild type (ΔGwild type) was calculated (ΔΔGbind=ΔGmutant−ΔGwild type). ΔΔGbind was tabulated (left) and plotted in a bar chart (right). […] Mutated residues are highlighted in red. The IC50 of each peptide, including WT, was determined by Fluorescence Polarization (FP). Different concentrations of each peptide were titrated into a mixture of 0.04 μM RBBp4 and 0.01 μM of C-labelled FITC-SALL4 WT peptide. Polarization was measured in mP. […] Pep-1 carrier was added to the peptide to facilitate cellular penetration of the peptides.
Peptides were titrated into a master mix of 0.045 μM RBBp4 and […] C-terminal FITC-labelled WT peptide (synthesized by Thermo Scientific). Reactions were incubated at room temperature before the plate was read with an Envision instrument (Perkin Elmer). IC50 values of peptides were determined using Prism (GraphPad).

[1] = Plasma stability by LC-MS/MS
Method: PEN-FFW was incubated with human plasma (pH7.4) at 37° C. over a 24 hour period (5 timepoints). Incubations were performed at a concentration of 1 μM (final DMSO concentration 2.5%). Reactions were terminated at 0, 5, 10, 15, 30 min, or 0, 1, 2, 4 and 24 hour, by addition of 2 volumes of methanol containing 1% Formic acid. The samples were centrifuged (2500 rpm, 45 min, 4° C.) and the supernatants diluted with 2 volumes of 0.2% Formic acid (aq) (containing Metoprolol (internal standard)). […] The percentage of parent peptide remaining at each time point relative to the 0 min sample was calculated from LC-MS/MS peak area ratios (compound peak area/internal standard peak area).

SNU398 cells = experiment: Cell viability assay in SNU398 cells; type: cell-based
Method: as §1
FIGS. 5A-5B. Development of a potent therapeutic peptide FFW.
SNU398 was grown in RPMI supplemented with 10% fetal bovine serum (FBS) at 37° C. in a humidified atmosphere of 5% CO2. 3000 cells were seeded in each well of a 96 well plate with 100 μL of medium. Before peptide treatment, cells were washed twice with PBS and treated with different concentrations of peptide in OPTIMEM (LifeTech). Media was added after 4 hrs of incubation at 37° C., and cells incubated for another 68 hrs. Tetrazolium (CellTiter96 AQueous One Solution Cell Proliferation Assay, Promega) was added after 72 hrs incubation with the peptides, and the plate was read at a plate reader at 490 nm after 1 hr of incubation in the dark at 37° C.

PTEN = PTEN transcript level by quantitative real-time PCR in SNU398 cells; type: cell-based; settings: Q-PCR
SNU398 = experiment: RNA-seq transcriptome analysis of treated SNU398; type: cell-based
Method: SNU398 were treated PEN, PEN-MUT, PEN-WT & PEN-FFW for 8 hrs and paired-end RNA-seq was performed for the treated samples. RNA-seq reads of each sample were mapped to hg19 using the STAR aligner. Normalization between the samples was based on the proportionality of the numbers of the mapped reads. The expression fold change of a transcript was obtained using linear regression of the reads between the two samples cross all exons. Differential expression between two samples was selected by using the fold change cut off of 2. Hierarchical clustering was performed based on average linkage to generate the clustering tree as well as heat maps. For identification of enriched gene sets or pathways, Gene Set Enrichment Analysis (GSEA) was performed based on the normalized data and using the GSEA tool (broad.mit.edu/gsea/) with msigdb.v5.0.

SNU398 tumor xenografts = experiment: SNU398 xenograft in NSG mice; type: in vivo, NOD/SCID/gamma mice
Method: FIGS. 7A-7E. […] FIG. 7A: 7.2×10^5 SNU398 cells were inoculated subcutaneously into the right flank of NOD/SCID/gamma mice (NSG mice). Tumors were allowed to grow for one week before peptide treatments were administered every alternate day for a total of five injections. FIG. 7B: Tumor growth was documented by plotting tumor volume against time. […] FIG. 7C: Relative size of tumors resected on day 20. FIG. 7D: tumor weight was determined (n=5). […] FIG. 7E: Total RNA was isolated from the resected tumors and expression of PTEN was measured using real-time PCR.
FIGS. 9A-9E. […] FIG. 9A: PEN-FFW treated SNU398 tumor xenografts were compared to that of Sorafenib treated xenografts. FIG. 9B: PEN-FFW treated PLC8024 tumor xenografts were compared to that of Sorafenib treated xenografts. Mice body weight was measured to access toxicity of various peptides. FIG. 9C: Body weight of mice at day 17. FIG. 9D: Differences of body weight compared to day 0 (As indicated by the arrow in far left of FIG. 7A). FIG. 9E: Body weight of mice at day 19th in the experiment shown in FIG. 9A comparing effect of Sorafenib and PEN-FFW. Data represent mean±s.d. (n=5).
All mice were treated in accordance with Responsible Care and Use of Laboratory animals. In the SNU398 in vivo studies, 6-8-week-old female C.B-17 severe combined immunodeficient (SCID) mice (NSG) were inoculated s.c. into the flank with 7.2×10^5 cells in 2:1 PBS/Matrigel (BD Biosciences). The tumours were then allowed to develop to the size of 50-70 mm3 before intraperitoneal injections of the different peptides were given at two to three-day intervals for a total of 5 injections. Mice were randomly grouped in sets of six and treated with PEN (penetratin control), PEN-MUT (mutant control), PEN-WT (wild type control) and PEN-FFW (peptide 47). Tumor volumes were measured every 5 days and tumor weight were measured at the end point. For PEN control, 22.5 mg/kg were given; for PEN-MUT, PEN-WT and PEN-FFW, 35.6 mg/kg, 37 mg/kg and 36 mg/kg were given respectively to the mice according to their body weight Tumor measurements were taken twice weekly using Vernier calipers. Tumor volume was estimated using the following formula: V=0.5×width×width×length. When tumors approached ˜50 mm3, mice were randomized into groups of 5 animals each and received peptides treatment three times weekly by i.p. injection. All statistical analysis was done using a one-way ANOVA and Student's T-test.

T1 sequence (Q09028 whole entry): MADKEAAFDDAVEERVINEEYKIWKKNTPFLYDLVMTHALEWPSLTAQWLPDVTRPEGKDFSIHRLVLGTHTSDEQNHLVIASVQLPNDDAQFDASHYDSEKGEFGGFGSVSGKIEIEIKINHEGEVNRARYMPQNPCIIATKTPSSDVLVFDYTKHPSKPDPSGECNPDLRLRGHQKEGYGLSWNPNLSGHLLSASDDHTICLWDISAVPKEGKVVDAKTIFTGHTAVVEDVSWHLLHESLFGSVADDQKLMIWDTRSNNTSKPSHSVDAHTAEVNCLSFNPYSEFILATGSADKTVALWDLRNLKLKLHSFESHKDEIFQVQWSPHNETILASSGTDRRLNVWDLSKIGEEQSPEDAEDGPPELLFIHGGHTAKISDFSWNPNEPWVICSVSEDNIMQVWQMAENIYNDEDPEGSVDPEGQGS

- peptide/compound remaining in the plasma ([1]; human plasma, 37° C., 1 μM, after 30 min): 40%
- remaining at 0.5 h, 1 μM ([1]; human, pH 7.4): 40%
Molecule: CC1CC(OC(=O)C(O)c2ccccc2)CC(C)(C)N1C (stereo not drawn) [Eucatropine]

- IC50 (RBBp4): 23 nM
- increase in affinity as compared with the original 12-residue WT peptide (RBBp4; ratio of FP IC50 values): > 56 fold
Molecule: Ac-RRKFAKFQWI-NH2 [Peptide 46]
- log2 fd versus Contr (PEN + Mut), ADORA2A-AS1 (SNU398; gene ADORA2A-AS1, SNU398, 8 hrs): 2.17
- log2 fd versus Contr (PEN + Mut), AVPR2 (SNU398; gene AVPR2, SNU398, 8 hrs): 1.53
- log2 fd versus Contr (PEN + Mut), CSAD (SNU398; gene CSAD, SNU398, 8 hrs): 1.09
- log2 fd versus Contr (PEN + Mut), DNASE1L2 (SNU398; gene DNASE1L2, SNU398, 8 hrs): 1.11
- log2 fd versus Contr (PEN + Mut), LOC619207 (SNU398; gene LOC619207, SNU398, 8 hrs): 1.33
- log2 fd versus Contr (PEN + Mut), NEIL1 (SNU398; gene NEIL1, SNU398, 8 hrs): 1.11
- log2 fd versus Contr (PEN + Mut), PRKXP1 (SNU398; gene PRKXP1, SNU398, 8 hrs): 2.12
- log2 fd versus Contr (PEN + Mut), SSPO (SNU398; gene SSPO, SNU398, 8 hrs): 2.40

- enhancement in binding affinity over that of peptide 6 (RBBp4; ratio of FP IC50 values): 7 fold
Molecule: Ac-RRKFAKPQHI-NH2 [Peptide 24]

- IC50 (RBBp4): > 20000 nM
Molecule: Ac-RAKQAKPQHI-NH2 [Peptide 9]

- IC50 (RBBp4): 270 ± 100 nM
Molecule: Ac-RRKLAKPQHI-NH2 [Peptide 23]

- IC50 (RBBp4): > 20000 nM
Molecule: Ac-RKQAKPQHI-NH2 [Peptide 7]

Continued, molecule first:

Molecule: Ac-ARKQAKPQHI-NH2 [Peptide 8]
- IC50 (RBBp4): > 20000 nM

Molecule: Ac-RRKQRKPQHI-NH2 [Peptide 26]
- IC50 (RBBp4): 460 ± 100 nM

Molecule: Ac-MSARAQAKPQHI-NH2 (N-terminus and C-terminus assumed) [MUT]
- effect on cell number (SNU398 cells; SNU398, Pep-1 carrier added): does not
- increase in PTEN expression compared to untreated cells (PTEN): no significant change

Molecule: Ac-KRKQAKPQHI-NH2 [Peptide 17]
- IC50 (RBBp4): 3800 ± 500 nM

Molecule: Ac-RRKQAKPAHI-NH2 [Peptide 14]
- IC50 (RBBp4): 120 ± 10 nM

Molecule: RQIKIWFQNRRMKWKKMSRRKQAKPQHI [PEN-WT]
- EC50 (SNU398 cells; 72 h): 30000 nM
- effect on tumor growth (SNU398 tumor xenografts; SNU398 xenograft, tumor volume against time): markedly impaired tumor growth
- tumor weight (SNU398 tumor xenografts; mean, tumors resected on day 20, five i.p. injections): 563.46 mg and 564 mg

Molecule: Ac-RRKQAKPQWI-NH2 [Peptide 41]
- IC50 (RBBp4): 120 nM
- enhancement in binding affinity over that of peptide 6 (RBBp4; ratio of FP IC50 values): 3 fold
